{"source": "patent US20220226447A1", "about": "“ANTI-ABETA VACCINE THERAPY” (AC Immune SA, priority 2019, published 2022)", "origin": "cited, not measured here", "conditions": "human, in vivo", "data": [{"substance": "AN1792: full-length Aβ1-42 vaccine", "values": [{"measurement": "antibody response", "result": "induced an antibody response"}, {"measurement": "rate of cognitive decline versus placebo-treated patients", "result": "slower rate of cognitive decline"}, {"measurement": "treated patients who developed meningoencephalitis", "result": 6, "unit": "%"}]}]}
